Among the data in US20250388544A1, “HETEROAROMATIC INHIBITORS OF ASTACIN PROTEINASES” (VIVORYON THERAPEUTICS N.V., priority 2019, published 2025) are IC50 and Ki values, retold here.

Common to all, as to type: biochemical
Assay [1] concerns the target T1, hMeprin β (Homo sapiens, UniProt Q16820).
T1 sequence (Q16820 62-701): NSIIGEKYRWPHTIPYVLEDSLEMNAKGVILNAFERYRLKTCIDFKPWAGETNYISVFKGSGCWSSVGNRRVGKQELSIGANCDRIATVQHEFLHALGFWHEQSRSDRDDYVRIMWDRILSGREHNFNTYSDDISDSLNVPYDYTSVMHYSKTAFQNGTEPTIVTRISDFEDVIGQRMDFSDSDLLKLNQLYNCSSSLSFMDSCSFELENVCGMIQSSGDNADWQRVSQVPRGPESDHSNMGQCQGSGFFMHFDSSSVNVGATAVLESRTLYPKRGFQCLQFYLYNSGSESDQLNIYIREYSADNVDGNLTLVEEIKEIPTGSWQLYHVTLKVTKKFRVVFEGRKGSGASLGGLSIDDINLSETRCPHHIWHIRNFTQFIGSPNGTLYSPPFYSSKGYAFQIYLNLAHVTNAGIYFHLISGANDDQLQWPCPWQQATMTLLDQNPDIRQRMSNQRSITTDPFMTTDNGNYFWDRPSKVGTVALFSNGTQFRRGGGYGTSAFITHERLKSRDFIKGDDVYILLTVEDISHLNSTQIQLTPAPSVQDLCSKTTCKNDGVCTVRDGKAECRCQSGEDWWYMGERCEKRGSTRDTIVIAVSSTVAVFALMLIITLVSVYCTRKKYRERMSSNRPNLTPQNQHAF
Kind of assay: Enzymatic assay, quenched peptide substrate cleavage, method A. Conditions: geometric mean (geometric SD factor in parentheses), read-out: Meprin beta IC50. The protocol: (§1) The determination of enzymatic activity was based on the cleavage of internally quenched peptide substrates. A typical assay of 250 μl total volume measured in black 96 well plates consisted of 100 μl buffer, 50 μl enzyme at a final concentration of 5e-8 M to 2e-10 M, 50 μl substrate (0.15 to 80 μM, in buffer, 0.5% DMSO) and 50 μl inhibitor solution (in buffer, 1% DMSO). In case of 125 μl assay volume (black 96 half area well plates) all volumes were cut in half. Enzymatic activity of ADAMs was measured in 384 well plates with 60 μl total assay volume consisting of 20 μl inhibitor, 20 μl buffer, 10 μl enzyme and 10 μl substrate.
(§2) Based on method B Ki^(app) values were determined using Morrison's equation. All measurements were performed using a fluorescence plate reader (FLUOSTAR OPTIMA, BMG Labtech) at 30° C. The kinetic parameters were determined at least in duplicates on separate days. The excitation/emission wavelength was 340/420 nm. The kinetic data was evaluated using GRAFIT software (version 7.0.3, Erithacus Software).

Assay [2] addresses T2, hMeprin α (Homo sapiens, UniProt Q16819).
T2 sequence (Q16819 66-746): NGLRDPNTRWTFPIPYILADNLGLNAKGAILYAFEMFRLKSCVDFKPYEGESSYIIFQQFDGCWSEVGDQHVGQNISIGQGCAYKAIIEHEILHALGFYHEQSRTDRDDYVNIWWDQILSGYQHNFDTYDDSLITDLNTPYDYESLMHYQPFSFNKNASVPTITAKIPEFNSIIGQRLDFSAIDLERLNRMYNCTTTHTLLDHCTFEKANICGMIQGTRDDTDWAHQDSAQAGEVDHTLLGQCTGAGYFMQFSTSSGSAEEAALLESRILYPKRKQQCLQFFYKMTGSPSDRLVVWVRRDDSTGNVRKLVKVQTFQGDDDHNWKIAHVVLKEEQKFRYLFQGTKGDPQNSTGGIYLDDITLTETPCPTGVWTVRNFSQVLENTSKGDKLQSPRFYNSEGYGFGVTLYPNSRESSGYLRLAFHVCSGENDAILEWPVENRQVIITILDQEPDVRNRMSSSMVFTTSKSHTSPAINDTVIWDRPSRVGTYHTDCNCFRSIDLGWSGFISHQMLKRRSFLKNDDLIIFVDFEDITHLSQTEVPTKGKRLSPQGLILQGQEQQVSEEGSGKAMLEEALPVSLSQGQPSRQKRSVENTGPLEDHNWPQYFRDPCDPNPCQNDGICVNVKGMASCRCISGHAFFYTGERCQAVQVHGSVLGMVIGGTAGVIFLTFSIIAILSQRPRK
Described as above. Conditions: geometric mean (geometric SD factor in parentheses), read-out: Meprin alpha IC50. Here is the method:
as §1, §2

Assay [3] has as its target T1, hMeprin β. The assay can be described thus: Enzymatic assay, quenched peptide substrate cleavage, method B. Conditions: geometric mean (geometric SD factor in parentheses); for Ki: Morrison's equation, read-out: Meprin beta Ki(app); for IC50: read-out: Meprin beta IC50. Summed up:
(§3)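 Cleavage of internally quenched peptides was read at 340/420 nm and 30° C., with enzyme at 5e-8 to 2e-10 M and substrate at 0.15–80 μM. Inhibitor solutions contained 1% DMSO and substrate 0.5% DMSO. Method B gave Ki(app) values via Morrison's equation, with kinetics measured in at least duplicate on separate days.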

Assay [4] addresses T2, hMeprin α. The description is as above. Conditions: geometric mean (geometric SD factor in parentheses); for Ki: Morrison's equation, read-out: Meprin alpha Ki(app); for IC50: read-out: Meprin alpha IC50. Put shortly: as §3

As a reminder, the IC50 is the point on the concentration scale where inhibition reaches its midpoint. Regarding `O=C(CCn1c(-c2ccccc2)nc2ccccc21)NO` [Example 14, 3-(2-Phenylbenzimidazol-1-yl)propanehydroxamic acid], the IC50 at hMeprin β [1] worked out at 28000 nM; at hMeprin α [2], 1130 nM; at hMeprin β [3] it was 32400 nM; on hMeprin α [4], 708 nM. In addition, the Ki at hMeprin β [3] was 31700 nM; on hMeprin α [4], 701 nM.
Regarding `O=C(CNc1c(-c2ccccc2)nc2ccccn12)NO` [Example 29, 2-[(2-Phenylimidazo[1,2-a]pyridin-3-yl)amino]-ethanehydroxamic acid], the IC50 was found to be 7120 nM at hMeprin β [1] and 793 nM at hMeprin α [2].
On the same counts, the results for `O=C(Cc1c(-c2ccccc2)nn(Cc2ccccc2)c1-c1ccccc1)NO` [Example 39, 2-(1-Benzyl-3,5-diphenyl-pyrazol-4-yl)ethanehydroxamic acid] are 254 nM and 2 nM.
On the same counts, the results for `O=C(Cc1c(-c2ccccc2)nn(-c2ccccc2)c1-c1ccccc1)NO` [Example 36, 2-(1,3,5-Triphenylpyrazol-4-yl)ethanehydroxamic acid] are 2380 nM and 17 nM.
The matching figures for `Cn1nc(-c2ccccc2)c(CC(=O)NO)c1-c1ccccc1` [Example 35, 2-(1-Methyl-3,5-diphenyl-pyrazol-4-yl)ethanehydroxamic acid]: 1220 nM and 9 nM.
Take `O=C(Cc1c(-c2ccccc2)nnn1-c1ccccc1)NO` [Example 11, 2-(3,5-Diphenyltriazol-4-yl)ethanehydroxamic acid]: the figures for the IC50 at hMeprin β [1] and at hMeprin α [2] were 1450 nM and 11 nM, respectively.
Regarding `O=C(Cc1c(-c2ccc(Cl)c(O)c2F)nc2ccccn12)NO` [Example 28, 2-[2-(4-Chloro-2-fluoro-3-hydroxy-phenyl)imidazo-[1,2-a]pyridin-3-yl]ethanehydroxamic acid], the half-maximal inhibitory concentration (IC50) worked out at 23 nM on hMeprin β [1], 135 nM on hMeprin α [2], 81 nM at hMeprin β [3] and 92 nM at hMeprin α [4]. Further, the Ki at hMeprin β [3] is 80 nM; at hMeprin α [4], 90 nM.
Turning to `O=C(CNc1c(-c2cccc(C(=O)O)c2)nc2ccccn12)NO` [Example 31, 3-[3-[[2-(Hydroxyamino)-2-oxo-ethyl]amino]-imidazo[1,2-a]pyridin-2-yl]benzoic acid], the IC50 at hMeprin β [1] came out at 214 nM; at hMeprin α [2] it was 693 nM.
